# Measurements reported in patent US5698411A, “Method for determining activity of enzymes in metabolically active whole cells” (priority 1995, dated 1997).
# What was measured:
# Type in all cases: cell-based, human
# [1] = system: lymphocytes; experiment: enzyme activity with fluorogenic substrate, normal lymphocytes (Table 3A)
# [2] = system: lymphocytes; experiment: aberrant enzyme activities in febrile children, lymphocytes (Table 7)
# [3] = system: monocytes; experiment: aberrant enzyme activities in febrile children, monocytes (Table 7)
# [4] = system: granulocytes; experiment: aberrant enzyme activities in febrile children, granulocytes (Table 7)
SMILES,NORMAL LEUKOCYTE ENZYME ACTIVITY LYMPHS Mean [1],"aberrant enzyme activity, LYMPHS ([2]; P88 Enteritis)","aberrant enzyme activity, LYMPHS ([2]; P89 Viral Stomatitis)","aberrant enzyme activity, LYMPHS ([2]; P92 Adenitis)","aberrant enzyme activity, LYMPHS ([2]; P97 Pyelonephritis)","aberrant enzyme activity, LYMPHS ([2]; P103 Viral Syndrome)","aberrant enzyme activity, MONOS ([3]; P88 Enteritis)","aberrant enzyme activity, MONOS ([3]; P89 Viral Stomatitis)","aberrant enzyme activity, MONOS ([3]; P92 Adenitis)","aberrant enzyme activity, MONOS ([3]; P97 Pyelonephritis)","aberrant enzyme activity, MONOS ([3]; P103 Viral Syndrome)","aberrant enzyme activity, GRANS ([4]; P88 Enteritis)","aberrant enzyme activity, GRANS ([4]; P89 Viral Stomatitis)","aberrant enzyme activity, GRANS ([4]; P92 Adenitis)","aberrant enzyme activity, GRANS ([4]; P97 Pyelonephritis)","aberrant enzyme activity, GRANS ([4]; P103 Viral Syndrome)",also measured
"O=C1OC2(c3ccc(OC4O[C@H](CO)[C@H](O)[C@H](O)[C@H]4O)cc3Oc3cc(OC4O[C@H](CO)[C@H](O)[C@H](O)[C@H]4O)ccc32)c2ccccc21 (stereo partly drawn) [GALAC, (D-galactose)2 fluorescein]",0.38,.smallcircle.,.smallcircle.,.smallcircle.,.smallcircle.,.smallcircle.,.smallcircle.,.smallcircle.,.smallcircle.,.smallcircle.,.smallcircle.,.smallcircle.,.smallcircle.,.smallcircle.,.smallcircle.,.smallcircle.,
"O=C1OC2(c3ccc(OP(=O)(O)O)cc3Oc3cc(OP(=O)(O)O)ccc32)c2ccccc21 [DPO4, (PO4)2 fluorescein]",54.29,.smallcircle.,.smallcircle.,.smallcircle.,.smallcircle.,.smallcircle.,.smallcircle.,+ (>0.25 Increase over normal range),+ (>0.25 Increase over normal range),.smallcircle.,+ (>0.25 Increase over normal range),.smallcircle.,+ (>0.25 Increase over normal range),+ (>0.25 Increase over normal range),.smallcircle.,+ (>0.25 Increase over normal range),"aberrant enzyme activity, LYMPHS ([2]; P95 Viral Syndrome): .smallcircle.; aberrant enzyme activity, LYMPHS ([2]; P96 Viral Syndrome): - (>0.25 Decrease over normal range); aberrant enzyme activity, LYMPHS ([2]; P99 Viral Syndrome): .smallcircle.; aberrant enzyme activity, LYMPHS ([2]; P101 Fever -- Unknown Origin): .smallcircle.; aberrant enzyme activity, LYMPHS ([2]; P102 UTI): .smallcircle.; aberrant enzyme activity, MONOS ([3]; P95 Viral Syndrome): + (>0.25 Increase over normal range); aberrant enzyme activity, MONOS ([3]; P99 Viral Syndrome): .smallcircle.; aberrant enzyme activity, MONOS ([3]; P101 Fever -- Unknown Origin): + (>0.25 Increase over normal range); aberrant enzyme activity, MONOS ([3]; P102 UTI): .smallcircle.; aberrant enzyme activity, GRANS ([4]; P95 Viral Syndrome): .smallcircle.; aberrant enzyme activity, GRANS ([4]; P96 Viral Syndrome): .smallcircle.; aberrant enzyme activity, GRANS ([4]; P99 Viral Syndrome): .smallcircle.; aberrant enzyme activity, GRANS ([4]; P101 Fever -- Unknown Origin): + (>0.25 Increase over normal range); aberrant enzyme activity, GRANS ([4]; P102 UTI): .smallcircle."
